Results published in patent publication US10597388B2, “Pyridazinone herbicides” (FMC CORPORATION, priority 2014, dated 2020).

Legend:
Format in all cases: in vivo
[1] = test system: ragweed (common ragweed, Ambrosia elatior); assay: Test A greenhouse herbicide test, pre- and postemergence
Summary of the method: (§1)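 Seeds sown in loam–sand blend got a preemergence directed soil spray of compound in non-phytotoxic solvent with surfactant. Postemergence treatment was given at 2–10 cm, one- to two-leaf stage. After ~10 d in greenhouse, injury was rated visually vs untreated controls, 0 (no effect) to 100 (complete control).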

[2] = test system: pigweed (Amaranthus retroflexus); assay: as above
Summary of the method: as §1

[3] = test system: barnyardgrass (Echinochloa crus-galli); assay: as above
Summary of the method: as §1

[4] = test system: wheat (Triticum aestivum); assay: as above; details: Postemergence
Summary of the method: as §1

corn (Zea mays) = assay: as above; details: Postemergence
Summary of the method: as §1

kochia (Kochia scoparia) [5] = assay: as above
Summary of the method: as §1

[6] = test system: crabgrass, large (large crabgrass, Digitaria sanguinalis); assay: Test C greenhouse herbicide test, pre- and postemergence; details: for Plant response rating, Crabgrass, Large: Postemergence; for Crabgrass, Large plant response rating: postemergence, 62 g ai/ha
Summary of the method: (§2)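 Each species was treated both before emergence, in a loam–sand soil mix, and after emergence, as 1- to 4-leaf seedlings in peat-based potting medium. Plants stayed in the greenhouse 13 to 15 d, then were scored from 0 (no effect) to 100 (complete control) relative to controls.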

[7] = test system: oilseed rape (Brassica napus); assay: as above; details: Postemergence
Summary of the method: as §2

[8] = test system: blackgrass (Alopecurus myosuroides); assay: Test A greenhouse herbicide test, postemergence
Summary of the method: (§3)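 Plants grown in loam soil/sand blend pots were treated postemergence at 2 to 10 cm height, one- to two-leaf stage, with formulated test chemicals. After approximately 10 d in a greenhouse, injury was rated visually against untreated controls on a 0 to 100 scale (0 no effect, 100 complete control).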

[9] = test system: galium (catchweed bedstraw, Galium aparine); assay: Test A greenhouse herbicide test, postemergence
Summary of the method: as §3

kochia (Kochia scoparia) [10] = assay: Test C greenhouse herbicide test, postemergence; details: Postemergence
Summary of the method: (§4)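 Test chemicals were applied postemergence to greenhouse plants at the 1- to 4-leaf stage (2–18 cm tall) growing in peat/vermiculite medium. After 13–15 d, injury was rated visually against untreated controls on a 0–100 scale (0 = no effect, 100 = complete control).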

[11] = test system: oat, wild (wild oat, Avena fatua); assay: Test C greenhouse herbicide test, postemergence; details: Postemergence
Summary of the method: as §4

[12] = Postemergence, 125 g ai/ha, 0 to 100 scale where 0 is no effect and 100 is complete control
[13] = Postemergence, 500 g ai/ha, visual rating after approx. 10 d, 0 to 100 scale (0 no effect, 100 complete control)
[14] = Preemergence, 125 g ai/ha, 0 to 100 scale where 0 is no effect and 100 is complete control
[15] = Preemergence, 500 g ai/ha, 0 to 100 scale where 0 is no effect and 100 is complete control
[16] = 125 g ai/ha, 0 to 100 scale where 0 is no effect and 100 is complete control
[17] = 500 g ai/ha, visual rating after approx. 10 d, 0 to 100 scale (0 no effect, 100 complete control)
[18] = 31 g ai/ha, scale 0 to 100 (0 no effect, 100 complete control)
[19] = 125 g ai/ha, scale 0 to 100, 0 is no effect, 100 is complete control
[20] = 250 g ai/ha, scale 0 to 100, 0 no effect, 100 complete control, 13 to 15 d
[21] = scale 0 to 100, 0 no effect, 100 complete control

| Structure (SMILES) | Plant response rating, Ragweed [1, 12] | Plant response rating, Ragweed [1, 13] | Ragweed plant response rating [1, 14] | Plant response rating, Ragweed [1, 15] | Plant response rating, Pigweed [2, 12] | Plant response rating, Pigweed [2, 13] | Pigweed plant response rating [2, 14] | Plant response rating, Pigweed [2, 15] | Plant response rating, Barnyardgrass [3, 12] | Plant response rating, Barnyardgrass [3, 13] | Barnyardgrass plant response rating [3, 14] | Plant response rating, Barnyardgrass [3, 15] | Plant response rating, Wheat [4, 16] | Plant response rating, Wheat [4, 17] | Plant response rating, Corn (corn (Zea mays); [16]) | Plant response rating, Corn (corn (Zea mays); [17]) | Plant response rating, Kochia (kochia (Kochia scoparia) [5]; [12]) | Plant response rating, Kochia (kochia (Kochia scoparia) [5]; [13]) | Kochia plant response rating (kochia (Kochia scoparia) [5]; [14]) | Plant response rating, Kochia (kochia (Kochia scoparia) [5]; [15]) | other results |
| --- | --- | --- | --- | --- | --- | --- | --- | --- | --- | --- | --- | --- | --- | --- | --- | --- | --- | --- | --- | --- | --- |
| Cc1nn(C)c(=O)c(-c2cc(F)cc3ccccc23)c1OS(C)(=O)=O [Compound 115] | 80 | 100 | 40 | 90 | 70 | 90 | 70 | 100 | 20 | 90 | 10 | 50 | 20 | 30 | 0 | 20 | 70 | 90 | 30 | 90 | Plant response rating, Crabgrass, Large [6, 18]: 10; Plant response rating, Crabgrass, Large [6, 19]: 20; Plant response rating, Crabgrass, Large [6, 20]: 25; Crabgrass, Large plant response rating [6, 21]: 20; Plant response rating, Oilseed Rape [7, 18]: 0; Plant response rating, Oilseed Rape [7, 19]: 0; Plant response rating, Oilseed Rape [7, 20]: 0; Plant response rating, Blackgrass [8, 16]: 20; Plant response rating, Blackgrass [8, 17]: 70; Plant response rating, Galium [9, 16]: 80; Plant response rating, Galium [9, 17]: 100; Plant response rating, Kochia (kochia (Kochia scoparia) [10]; [18]): 70; Plant response rating, Kochia (kochia (Kochia scoparia) [10]; [19]): 90; Plant response rating, Kochia (kochia (Kochia scoparia) [10]; [20]): 90; Plant response rating, Oat, Wild [11, 18]: 55; Plant response rating, Oat, Wild [11, 19]: 80; Plant response rating, Oat, Wild [11, 20]: 90 |
| Cc1nn(C)c(=O)c(-c2ccc(F)c3ccccc23)c1OC(=O)CC(F)(F)F [Compound 123] | 50 | 90 | 60 | 70 | 60 | 70 | 100 | 100 | 40 | 70 | 0 | 80 | 0 | 20 | 0 | 20 | 70 | 70 | 50 | 100 | Plant response rating, Crabgrass, Large [6, 18]: 10; Plant response rating, Crabgrass, Large [6, 19]: 30; Plant response rating, Crabgrass, Large [6, 20]: 75; Crabgrass, Large plant response rating [6, 21]: 35; Plant response rating, Oilseed Rape [7, 18]: 0; Plant response rating, Oilseed Rape [7, 19]: 0; Plant response rating, Oilseed Rape [7, 20]: 5; Plant response rating, Blackgrass [8, 16]: 30; Plant response rating, Blackgrass [8, 17]: 50; Plant response rating, Galium [9, 16]: 80; Plant response rating, Galium [9, 17]: 90; Plant response rating, Kochia (kochia (Kochia scoparia) [10]; [18]): 95; Plant response rating, Kochia (kochia (Kochia scoparia) [10]; [19]): 95; Plant response rating, Kochia (kochia (Kochia scoparia) [10]; [20]): 98; Plant response rating, Oat, Wild [11, 18]: 70; Plant response rating, Oat, Wild [11, 19]: 90; Plant response rating, Oat, Wild [11, 20]: 95 |
